Source: publication PMC8298439, “Development of a mechanistic model to predict synthetic biotic activity in healthy volunteers and patients with phenylketonuria” (Communications Biology, 2021)

Target: T1, PAL (phenylalanine ammonia lyase) of SYNB1618 (Photorhabdus laumondii, UniProt Q7N4T3)
T1 construct: gene plu2234; expressed in cytosol of engineered E. coli Nissle 1917 (SYNB1618, with PheP transporter, dapA deleted); whole-cell assay, LAAD not induced; multimeric
Assay: d5-TCA formation from d5-Phe by whole SYNB1618 cells, LC-MS/MS
Type: cell-based
Conditions: whole-cell product (feedback) inhibition; 20 mM d5-Phe; 0.0–8.0 mM exogenous unlabeled TCA; 60 min

T1 sequence (Q7N4T3 entry or part of it): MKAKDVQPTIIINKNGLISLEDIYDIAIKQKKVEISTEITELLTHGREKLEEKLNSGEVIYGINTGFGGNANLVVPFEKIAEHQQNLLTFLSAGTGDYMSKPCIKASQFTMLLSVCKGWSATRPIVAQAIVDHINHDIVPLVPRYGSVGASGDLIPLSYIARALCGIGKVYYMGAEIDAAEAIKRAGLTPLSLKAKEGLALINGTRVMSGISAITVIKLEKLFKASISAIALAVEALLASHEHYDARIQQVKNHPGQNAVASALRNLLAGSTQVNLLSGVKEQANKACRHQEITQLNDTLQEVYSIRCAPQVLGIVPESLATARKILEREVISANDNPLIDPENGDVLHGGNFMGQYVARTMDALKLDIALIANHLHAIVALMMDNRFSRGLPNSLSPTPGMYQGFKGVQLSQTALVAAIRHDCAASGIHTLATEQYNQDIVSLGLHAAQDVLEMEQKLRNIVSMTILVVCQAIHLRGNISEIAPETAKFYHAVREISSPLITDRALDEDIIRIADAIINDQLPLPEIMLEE

SMILES: O=C(O)/C=C/c1ccccc1 [TCA]
- % decrease of de novo d5-TCA production: up to 60
